Laboratory results published in paper PMC12525784, “Novel Azaborine-Based Inhibitors of Histone Deacetylases (HDACs)” (Molecules, 2025).

What was measured:
Type in all cases: biochemical
[1] = target: T1, HDAC4 (Homo sapiens, UniProt P56524); test: HDAC4 enzymatic activity assay (dose-response, Boc-Lys(Tfa)-AMC); conditions: 1 nM HDAC4, 20 µM Boc-Lys(Tfa)-AMC; triplicate, mean ± SD
T1 construct: made in house
Method: (§1) Enzymatic activity assays for compound screening and dose–response analysis were performed as previously described. […] For dose–response curves, serial inhibitor dilutions were incubated with 40 nM HDAC1 (BPS Bioscience, San Diego, CA, USA), 1 nM HDAC4, or 10 nM HDAC8. […] All IC50 determinations were performed in triplicate, and the results are expressed as mean values ± standard deviation (SD). HDAC4 and HDAC8 were produced according to previously reported protocols. HDAC1 was purchased from BPS Bioscience (San Diego, CA, USA). Boc-Lys(Tfa)-AMC and trypsin were purchased from Bachem (Bubendorf, Switzerland) and AppliChem (Darmstadt, Germany), respectively.

[2] = target: T2, HDAC1 (Homo sapiens, UniProt Q13547); test: HDAC1 enzymatic activity assay (dose-response, Boc-Lys(Ac)-AMC); conditions: 40 nM HDAC1, 50 µM Boc-Lys(Ac)-AMC; triplicate, mean ± SD
T2 construct: purchased BPS Bioscience
T2 sequence (Q13547 whole entry): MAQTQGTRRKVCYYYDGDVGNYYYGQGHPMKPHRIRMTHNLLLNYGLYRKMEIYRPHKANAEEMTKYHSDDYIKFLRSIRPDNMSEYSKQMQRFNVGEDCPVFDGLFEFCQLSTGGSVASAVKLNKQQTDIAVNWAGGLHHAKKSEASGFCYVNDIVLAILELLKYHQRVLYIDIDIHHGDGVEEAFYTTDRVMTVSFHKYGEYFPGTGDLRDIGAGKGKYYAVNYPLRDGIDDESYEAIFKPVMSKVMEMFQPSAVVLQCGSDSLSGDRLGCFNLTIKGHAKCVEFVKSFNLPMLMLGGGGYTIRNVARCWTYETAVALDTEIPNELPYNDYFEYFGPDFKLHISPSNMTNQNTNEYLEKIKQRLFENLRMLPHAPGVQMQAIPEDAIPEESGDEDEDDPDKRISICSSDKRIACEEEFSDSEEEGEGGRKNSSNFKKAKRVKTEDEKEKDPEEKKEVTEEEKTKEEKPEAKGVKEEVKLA
Method: Enzymatic activity assays for compound screening and dose–response analysis were performed as previously described. In brief, compounds were screened at 35 µM using 1 nM HDAC4 and 10 nM HDAC8, respectively. For dose–response curves, serial inhibitor dilutions were incubated with 40 nM HDAC1 (BPS Bioscience, San Diego, CA, USA), 1 nM HDAC4, or 10 nM HDAC8. Reactions were initiated with 20 µM Boc-Lys(Tfa)-AMC (HDAC4/8) or 50 µM Boc-Lys(Ac)-AMC (HDAC1) and terminated with 0.4 mg/mL trypsin ([…]) and 1.7 µM SATFMK (HDAC4/8) or 4.2 µM SAHA (HDAC1). All IC50 determinations were performed in triplicate, and the results are expressed as mean values ± standard deviation (SD). HDAC4 and HDAC8 were produced according to previously reported protocols. HDAC1 was purchased from BPS Bioscience (San Diego, CA, USA). Boc-Lys(Tfa)-AMC and trypsin were purchased from Bachem (Bubendorf, Switzerland) and AppliChem (Darmstadt, Germany), respectively.

[3] = target: T3, HDAC8 (Homo sapiens, UniProt Q9BY41); test: HDAC8 enzymatic activity assay (dose-response, Boc-Lys(Tfa)-AMC); conditions: 10 nM HDAC8, 20 µM Boc-Lys(Tfa)-AMC; triplicate, mean ± SD
T3 construct: made in house
T3 sequence (Q9BY41 1-377): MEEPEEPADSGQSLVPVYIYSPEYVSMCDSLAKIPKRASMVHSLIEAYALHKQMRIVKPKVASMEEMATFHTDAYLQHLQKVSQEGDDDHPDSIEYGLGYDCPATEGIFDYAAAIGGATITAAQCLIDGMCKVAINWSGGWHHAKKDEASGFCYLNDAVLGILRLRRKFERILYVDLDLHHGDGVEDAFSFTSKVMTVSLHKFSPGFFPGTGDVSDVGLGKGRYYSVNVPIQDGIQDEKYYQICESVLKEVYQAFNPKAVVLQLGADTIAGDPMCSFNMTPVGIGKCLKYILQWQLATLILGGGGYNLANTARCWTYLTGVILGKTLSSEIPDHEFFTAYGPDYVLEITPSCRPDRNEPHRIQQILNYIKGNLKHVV
Method: as §1

T1 sequence (P56524 whole entry): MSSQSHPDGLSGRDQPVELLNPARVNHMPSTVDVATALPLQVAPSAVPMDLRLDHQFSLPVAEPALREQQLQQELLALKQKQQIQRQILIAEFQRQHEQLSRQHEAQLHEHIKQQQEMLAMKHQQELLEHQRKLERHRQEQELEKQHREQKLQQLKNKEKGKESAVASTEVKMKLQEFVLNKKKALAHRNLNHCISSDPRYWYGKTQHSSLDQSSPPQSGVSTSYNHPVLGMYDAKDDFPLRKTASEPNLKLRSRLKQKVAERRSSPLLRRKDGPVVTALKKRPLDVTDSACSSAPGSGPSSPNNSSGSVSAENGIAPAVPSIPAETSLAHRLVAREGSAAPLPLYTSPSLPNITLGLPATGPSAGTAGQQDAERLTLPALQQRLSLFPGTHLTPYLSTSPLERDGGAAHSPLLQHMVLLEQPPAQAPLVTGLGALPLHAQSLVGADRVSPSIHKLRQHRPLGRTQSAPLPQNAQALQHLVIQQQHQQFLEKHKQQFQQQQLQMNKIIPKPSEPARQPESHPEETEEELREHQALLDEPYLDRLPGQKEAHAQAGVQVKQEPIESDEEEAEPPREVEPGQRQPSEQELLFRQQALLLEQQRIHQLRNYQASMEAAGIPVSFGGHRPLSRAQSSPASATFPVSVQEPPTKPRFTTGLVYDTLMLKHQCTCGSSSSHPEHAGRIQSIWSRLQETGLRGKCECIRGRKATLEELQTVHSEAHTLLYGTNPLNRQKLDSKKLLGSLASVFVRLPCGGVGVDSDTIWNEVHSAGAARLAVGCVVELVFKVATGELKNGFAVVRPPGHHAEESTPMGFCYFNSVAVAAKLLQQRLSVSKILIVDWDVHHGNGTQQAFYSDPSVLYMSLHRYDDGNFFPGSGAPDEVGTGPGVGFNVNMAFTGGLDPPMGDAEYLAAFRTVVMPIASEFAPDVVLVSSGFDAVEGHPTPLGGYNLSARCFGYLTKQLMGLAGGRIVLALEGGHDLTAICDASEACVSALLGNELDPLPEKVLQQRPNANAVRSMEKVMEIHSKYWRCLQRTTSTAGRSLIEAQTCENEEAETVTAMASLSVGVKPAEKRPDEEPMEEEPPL

IC50 [1] | IC50 [2] | IC50 [3] | Structure (SMILES)
> 35 µM | > 35 µM | > 35 µM | Nc1ccccc1NC(=O)CCCCc1cn(CB2C=Cc3ccccc3N2)nn1 [Compound 8]
16.8 ± 1.6 µM | > 35 µM | 20 ± 3 µM | Nc1ccccc1NC(=O)c1cn(CB2C=Cc3ccccc3N2)nn1 [Compound 9]
8.08 ± 1.59 µM | > 35 µM | 19 ± 5 µM | Nc1ccccc1NC(=O)CCCc1cn(CB2C=Cc3ccccc3N2)nn1 [Compound 10]
> 35 µM | > 35 µM | > 35 µM | O=C(CCc1cn(CB2C=Cc3ccccc3N2)nn1)NO [Compound 11]
13.8 ± 4.3 µM | > 35 µM | 6.2 ± 3.4 µM | O=C(CCCCc1cn(CB2C=Cc3ccccc3N2)nn1)NO [Compound 12]
23.1 ± 4.9 µM | > 35 µM | 3.3 ± 1.7 µM | O=C(CCCc1cn(CB2C=Cc3ccccc3N2)nn1)NO [Compound 13]
> 35 µM | > 35 µM | > 35 µM | Nc1cc(F)ccc1NC(=O)CCc1cn(CB2C=Cc3ccccc3N2)nn1 [Compound 14]
> 35 µM | > 35 µM | > 35 µM | Nc1cc(F)ccc1NC(=O)CCCCc1cn(CB2C=Cc3ccccc3N2)nn1 [Compound 15]
14.7 ± 1.7 µM | > 35 µM | > 35 µM | O=C(CCCCCCC(=O)OCB1C=Cc2ccccc2N1)NO [Compound 16d]
16.5 ± 1 µM | 8.2 ± 2.5 µM | 15 ± 3 µM | Nc1ccccc1NC(=O)CCCCCCC(=O)OCB1C=Cc2ccccc2N1 [Compound 17]
> 35 µM | 8.2 ± 1.8 µM | 0.52 ± 0.11 µM | O=C(/C=C/c1ccc(C(=O)NO)cc1)OCB1C=Cc2ccccc2N1 [Compound 18]
> 35 µM | > 35 µM | > 35 µM | O=C(CCCC(=O)OCB1C=Cc2ccccc2N1)NO [Compound 19]
> 35 µM | > 35 µM | > 35 µM | Nc1cc(F)ccc1NC(=O)c1cccc(C(=O)OCB2C=Cc3ccccc3N2)c1 [Compound 20]
> 35 µM | > 35 µM | > 35 µM | Nc1ccccc1NC(=O)c1cccc(C(=O)OCB2C=Cc3ccccc3N2)c1 [Compound 21]
> 35 µM | > 35 µM | > 35 µM | Nc1ccccc1NC(=O)CCSCCC(=O)OCB1C=Cc2ccccc2N1 [Compound 22]
7.3 ± 1.7 µM | 1.88 ± 0.11 µM | 0.44 ± 0.07 µM | O=C(NO)c1cccc(C(=O)OCB2C=Cc3ccccc3N2)c1 [Compound 23]
> 35 µM | 9.3 ± 2.3 µM | > 35 µM | O=C(CCCCCCNCB1C=Cc2ccccc2N1)NO [Compound 24]
17 ± 3 µM | > 35 µM | > 35 µM | O=C(NO)c1cccc(NCB2C=Cc3ccccc3N2)c1 [Compound 25]
> 35 µM | > 35 µM | > 35 µM | Nc1cc(F)ccc1NC(=O)c1ccc(CNCB2C=Cc3ccccc3N2)cc1 [Compound 26]
> 35 µM | > 35 µM | > 35 µM | O=C(NO)c1cccc(CNCB2C=Cc3ccccc3N2)c1 [Compound 27]
1.35 ± 0.18 µM | 0.975 ± 0.394 µM | 0.2 ± 0.02 µM | O=C(NO)c1cccc(B2Nc3ccccc3N2)c1 [Compound 30]
> 35 µM | > 35 µM | > 35 µM | Nc1ccccc1NC(=O)c1cccc(B2Nc3ccccc3N2)c1 [Compound 31]
> 35 µM | > 35 µM | > 35 µM | Nc1cc(F)ccc1NC(=O)c1cccc(B2Nc3ccccc3N2)c1 [Compound 32]
> 35 µM | > 35 µM | > 35 µM | O=C(NO)c1ccc(B2Nc3ccccc3N2)cc1 [Compound 35]
